Measured values from patent US8980820B2, “Fatty acid binding proteins as drug targets for endocannabinoids” (The Research Foundation for the State University of New York, priority 2010, dated 2015).
Entries after “also recorded” stand apart in the source; their conditions may differ.

Experiments:
[1] = stability of AEA during pre-equilibration in medium with BSA; format: physicochemical; settings: 75 min in medium containing 0.15% BSA, data not shown
Description: Cells were plated at ˜90% confluency in 35 mm dishes, washed twice in DMEM and preincubated with the desired pharmacological compounds or vehicle controls (EtOH or DMSO). The cells were washed twice in DMEM and subsequently incubated for 5 min, 10 or 3 sec, with 750 μl [^14C]AEA (100 nM) that was pre-equilibrated for 75 min in medium containing 0.15% BSA. The equilibration step is necessary to avoid uneven distribution of the radiotracer and to ensure that it is stable in solution pre-bound to BSA. Less than 1% of AEA was hydrolyzed during this pre-equilibration step (data not shown). Following the incubation, 750 μl of ice-cold DMEM+0.15% BSA was added to the plates, the media separated from cells, which were then washed with DMEM+0.15% BSA to remove non-specifically bound AEA. The cells were scraped three times with 400 μl of ice-cold 2 mM EDTA in PBS and chloroform:methanol (1:1) added to the media and cells and the phases separated by centrifugation. The resulting aqueous (containing [^14C]ethanolamine) and organic (containing intact [^14C]AEA) phases were counted by liquid scintillation counting. [^14C]AEA uptake was determined by summing the production of [^14C]ethanolamine in the media and cells with intact cellular [^14C]AEA. Hydrolysis of [^14C]AEA was quantified by production of [^14C]ethanolamine in the media and cells. […]

FAAH [2] = molecular target: T1, FAAH (Rattus norvegicus, UniProt P97612); experiment: FAAH enzyme assay, COS-7-FAAH-eGFP homogenates; format: biochemical; settings: 100 μM inhibitor, 100 μM [14C]AEA, p>0.05
T1 construct: N-terminal transmembrane helix (residues 1-29) in red, residues 30-579 in black, and eGFP in green; expressed in transfected cells
T1 sequence (P97612 1-579): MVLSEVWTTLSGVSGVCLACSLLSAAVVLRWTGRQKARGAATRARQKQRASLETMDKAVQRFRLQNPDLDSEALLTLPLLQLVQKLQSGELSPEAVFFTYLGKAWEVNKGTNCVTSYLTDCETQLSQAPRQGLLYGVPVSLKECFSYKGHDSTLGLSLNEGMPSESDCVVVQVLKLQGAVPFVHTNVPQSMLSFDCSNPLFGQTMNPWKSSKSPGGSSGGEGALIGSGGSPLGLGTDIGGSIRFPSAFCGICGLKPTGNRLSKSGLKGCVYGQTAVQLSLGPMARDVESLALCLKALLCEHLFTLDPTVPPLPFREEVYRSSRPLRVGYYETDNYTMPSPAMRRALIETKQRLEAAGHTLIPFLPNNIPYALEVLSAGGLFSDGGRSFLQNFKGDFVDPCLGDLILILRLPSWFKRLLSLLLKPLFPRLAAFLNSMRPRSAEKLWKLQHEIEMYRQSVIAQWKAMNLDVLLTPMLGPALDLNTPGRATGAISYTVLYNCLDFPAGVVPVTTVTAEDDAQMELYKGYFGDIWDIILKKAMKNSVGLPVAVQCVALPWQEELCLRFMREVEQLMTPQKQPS
Description: (§1) FAAH activity assays were performed as previously described. Briefly, cell homogenates were incubated with 100 μM AEA+0.1 μCi [^14C]AEA in Tris-HCl (pH 9) containing 0.1% BSA. For activity analysis, time and total protein were adjusted to maintain substrate conversion at approximately 10%. […] AEA (100 μM) for 1 or 30 min, respectively. Reactions were stopped by the addition of two volumes of 1:1 chloroform:methanol and the phases separated by centrifugation. The methanol phase (containing [^14C]ethanolamine) was sampled and quantified using a Beckman LS 6500 scintillation counter.

COS7-FAAH-eGFP cells = experiment: [14C]AEA cellular uptake and hydrolysis in COS7-FAAH-eGFP cells; format: cell-based, African green monkey
Description: (§2) COS-7 and N18TG2 cells were grown in DMEM supplemented with 10% fetal bovine serum, 100 U/ml penicillin/streptomycin, 2 mM L-glutamine, and 1 mM sodium pyruvate in a humidified incubator containing 95% air and 5% CO2. Transfections were carried out using Lipofectamine 2000 (Invitrogen, Carlsbad, Calif.) according to the manufacturer's instructions. For stable cell selection, forty eight hours after transfection cells were expanded in medium containing 750 μg/ml geneticin (Invitrogen, Carlsbad, Calif.). Four weeks later, stable cells were subjected to flow cytometry at the Flow Cytometry Core Facility in Stony Brook University and cells expressing identical levels of the indicated FAAH-eGFP fusion proteins were collected and expanded.
(§3) Cells were plated at ˜90% confluency in 35 mm dishes, washed twice in DMEM and preincubated with the desired pharmacological compounds or vehicle controls (EtOH or DMSO). The cells were washed twice in DMEM and subsequently incubated for 5 min, 10 or 3 sec, with 750 μl [^14C]AEA (100 nM) that was pre-equilibrated for 75 min in medium containing 0.15% BSA. The equilibration step is necessary to avoid uneven distribution of the radiotracer and to ensure that it is stable in solution pre-bound to BSA. Less than 1% of AEA was hydrolyzed during this pre-equilibration step (data not shown). Following the incubation, 750 μl of ice-cold DMEM+0.15% BSA was added to the plates, the media separated from cells, which were then washed with DMEM+0.15% BSA to remove non-specifically bound AEA. The cells were scraped three times with 400 μl of ice-cold 2 mM EDTA in PBS and chloroform:methanol (1:1) added to the media and cells and the phases separated by centrifugation. The resulting aqueous (containing [^14C]ethanolamine) and organic (containing intact [^14C]AEA) phases were counted by liquid scintillation counting. [^14C]AEA uptake was determined by summing the production of [^14C]ethanolamine in the media and cells with intact cellular [^14C]AEA. Hydrolysis of [^14C]AEA was quantified by production of [^14C]ethanolamine in the media and cells. Blanks consisting of either untransfected COS-7 cells or N18TG2 cells treated with 100 nM of the FAAH inhibitor URB597 were subtracted from all conditions.

FAAH [3] = molecular target: T2, FAAH (Mus musculus, UniProt O08914); experiment: FAAH enzyme assay, N18TG2 homogenates; format: biochemical; settings: 100 μM inhibitor, 100 μM [14C]AEA, p>0.05
T2 construct: endogenous in cells; host or cells: N18TG2 mouse neuroblastoma cells, used as homogenate
T2 sequence (O08914 1-579): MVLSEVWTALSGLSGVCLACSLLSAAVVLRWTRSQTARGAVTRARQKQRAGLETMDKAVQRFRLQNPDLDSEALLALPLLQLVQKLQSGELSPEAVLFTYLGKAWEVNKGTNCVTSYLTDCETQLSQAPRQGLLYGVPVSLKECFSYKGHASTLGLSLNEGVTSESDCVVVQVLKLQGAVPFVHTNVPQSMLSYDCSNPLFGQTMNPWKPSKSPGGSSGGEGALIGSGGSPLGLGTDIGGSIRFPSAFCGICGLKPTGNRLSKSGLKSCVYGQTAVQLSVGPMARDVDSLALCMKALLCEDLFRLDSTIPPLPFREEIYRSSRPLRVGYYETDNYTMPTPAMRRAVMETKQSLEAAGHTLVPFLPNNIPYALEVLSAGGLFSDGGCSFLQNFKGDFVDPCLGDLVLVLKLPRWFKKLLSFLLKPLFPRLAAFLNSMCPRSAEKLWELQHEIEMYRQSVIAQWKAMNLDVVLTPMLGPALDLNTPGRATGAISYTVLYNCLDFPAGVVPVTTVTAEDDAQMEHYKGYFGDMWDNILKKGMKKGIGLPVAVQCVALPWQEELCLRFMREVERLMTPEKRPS
Description: as §1

N18TG2 cells = experiment: [14C]AEA cellular uptake and hydrolysis in N18TG2 cells; format: cell-based, mouse
Description: as §2, §3

[4] = 20-100 μM BMS309403, dose-dependent
[5] = 100 μM, 5 min, vs vehicle, p<0.05
[6] = oleic acid 100 μM, 5 min incubation, [14C]AEA 100 nM

| SMILES | AEA hydrolyzed during pre-equilibration step [1] | [14C]AEA hydrolysis (FAAH activity) by homogenates (FAAH [2]) | intracellular hydrolysis of [14C]AEA following uptake (COS7-FAAH-eGFP cells; 3 sec, 20-100 μM) | levels of cell associated [14C]AEA (COS7-FAAH-eGFP cells; 3 sec, data not shown) | maximal inhibition of [14C]AEA uptake (COS7-FAAH-eGFP cells; [4]) | [14C]AEA hydrolysis (metabolism), effect in words (COS7-FAAH-eGFP cells; 20-100 μM, vs vehicle) | [14C]AEA uptake, effect in words (COS7-FAAH-eGFP cells; 20-100 μM, vs vehicle) | [14C]AEA hydrolysis (FAAH activity) by homogenates (FAAH [3]) | intracellular hydrolysis of [14C]AEA following uptake (N18TG2 cells; 3 sec, 20-100 μM) | levels of cell associated [14C]AEA (N18TG2 cells; 3 sec, data not shown) | maximal inhibition of [14C]AEA uptake (N18TG2 cells; [4]) | [14C]AEA hydrolysis (metabolism), effect in words (N18TG2 cells; 20-100 μM, vs vehicle) | [14C]AEA uptake, effect in words (N18TG2 cells; 20-100 μM, vs vehicle) | [14C]AEA hydrolysis, effect in words (COS7-FAAH-eGFP cells; [5]) | [14C]AEA uptake, effect in words (COS7-FAAH-eGFP cells; [5]) | reduction of [14C]AEA uptake (COS7-FAAH-eGFP cells; [6]) | [14C]AEA hydrolysis, effect in words (N18TG2 cells; [5]) | [14C]AEA uptake, effect in words (N18TG2 cells; [5]) | reduction of [14C]AEA uptake (N18TG2 cells; [6]) |
| --- | --- | --- | --- | --- | --- | --- | --- | --- | --- | --- | --- | --- | --- | --- | --- | --- | --- | --- | --- |
| CCCCC/C=C\C/C=C\C/C=C\C/C=C\CCCC(=O)NCCO [AEA, arachidonoyl ethanolamide] | Less than 1% |  |  |  |  |  |  |  |  |  |  |  |  |  |  |  |  |  |  |
| CCc1c(-c2ccccc2)c(-c2ccccc2)nn1-c1ccccc1-c1cccc(OCC(=O)O)c1 [BMS309403] |  | did not inhibit; also recorded: not inhibited | reduced | without affecting | 48% | proportionally and significantly reduced; also recorded: significantly decreased | significantly decreased | did not inhibit; also recorded: not inhibited | reduced | without affecting | 57% | proportionally and significantly reduced; also recorded: significantly decreased | significantly decreased |  |  |  |  |  |  |
| CCCCCCCC/C=C\CCCCCCCC(=O)O [oleic acid] |  | did not inhibit; also recorded: not inhibited |  |  |  |  |  | did not inhibit; also recorded: not inhibited |  |  |  |  |  | significantly reduced | significantly reduced | 25% | significantly reduced | significantly reduced | 53% |
